Experimental data as given in the supplement of paper PMC12463676, “Small-molecule dissolution of stress granules by redox modulation benefits ALS models” (Nature Chemical Biology, 2025).

Compound: O=[As]([O-])(O)O.[K+] [potassium arsenate]
Test: thermal stability z-score vs DMSO; higher = more thermally stabilized by treatment
Conditions: HeLa; arsenate concentration 1 mM
Method: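 Cellular thermal proteome profiling in HeLa cells treated with 1 mM arsenate for 1 h (DMSO pretreatment), heated to ten temperatures (37-66.3 °C). Soluble protein was quantified by TMT mass spectrometry relative to DMSO controls; the thermal stability score was transformed to a z-score; mean of n = 3 experiments.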
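Note: each temperature applied for 3 min, abundance score taken as mean log2 fold change at the two lowest temperatures, z-score obtained by mean subtraction and division by SD.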

Sequence of UniProt P56199 (P56199 whole entry): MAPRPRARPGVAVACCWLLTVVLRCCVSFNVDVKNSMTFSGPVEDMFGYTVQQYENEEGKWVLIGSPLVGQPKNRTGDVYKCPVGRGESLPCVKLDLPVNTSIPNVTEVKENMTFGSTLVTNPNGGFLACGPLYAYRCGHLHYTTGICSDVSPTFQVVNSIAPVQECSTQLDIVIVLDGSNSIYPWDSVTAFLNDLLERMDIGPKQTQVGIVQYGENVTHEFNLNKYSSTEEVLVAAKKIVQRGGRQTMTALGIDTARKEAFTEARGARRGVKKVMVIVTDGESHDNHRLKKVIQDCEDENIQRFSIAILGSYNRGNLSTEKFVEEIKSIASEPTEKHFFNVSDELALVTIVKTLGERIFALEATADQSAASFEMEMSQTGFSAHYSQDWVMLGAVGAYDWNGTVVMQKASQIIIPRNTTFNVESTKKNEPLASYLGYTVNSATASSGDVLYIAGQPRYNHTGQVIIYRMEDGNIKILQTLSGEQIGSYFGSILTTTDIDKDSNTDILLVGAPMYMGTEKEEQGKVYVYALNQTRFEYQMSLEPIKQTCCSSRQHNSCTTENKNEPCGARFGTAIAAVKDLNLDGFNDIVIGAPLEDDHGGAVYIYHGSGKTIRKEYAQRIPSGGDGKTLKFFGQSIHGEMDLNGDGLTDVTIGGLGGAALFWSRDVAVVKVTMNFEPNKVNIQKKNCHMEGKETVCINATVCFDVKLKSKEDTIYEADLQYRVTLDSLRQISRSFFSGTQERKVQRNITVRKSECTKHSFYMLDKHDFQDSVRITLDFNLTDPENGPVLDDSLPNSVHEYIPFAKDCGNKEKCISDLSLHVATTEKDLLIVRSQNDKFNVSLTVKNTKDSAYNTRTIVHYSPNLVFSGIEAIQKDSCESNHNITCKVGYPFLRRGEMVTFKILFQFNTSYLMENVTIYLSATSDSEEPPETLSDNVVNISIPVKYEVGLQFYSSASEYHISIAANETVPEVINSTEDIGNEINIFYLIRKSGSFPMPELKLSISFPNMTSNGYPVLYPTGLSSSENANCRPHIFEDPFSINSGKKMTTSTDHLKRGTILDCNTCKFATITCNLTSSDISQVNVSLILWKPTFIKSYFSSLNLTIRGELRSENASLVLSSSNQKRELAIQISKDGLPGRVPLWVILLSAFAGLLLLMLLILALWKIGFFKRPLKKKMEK
Sequence of UniProt Q92905 (Q92905 whole entry, looked up): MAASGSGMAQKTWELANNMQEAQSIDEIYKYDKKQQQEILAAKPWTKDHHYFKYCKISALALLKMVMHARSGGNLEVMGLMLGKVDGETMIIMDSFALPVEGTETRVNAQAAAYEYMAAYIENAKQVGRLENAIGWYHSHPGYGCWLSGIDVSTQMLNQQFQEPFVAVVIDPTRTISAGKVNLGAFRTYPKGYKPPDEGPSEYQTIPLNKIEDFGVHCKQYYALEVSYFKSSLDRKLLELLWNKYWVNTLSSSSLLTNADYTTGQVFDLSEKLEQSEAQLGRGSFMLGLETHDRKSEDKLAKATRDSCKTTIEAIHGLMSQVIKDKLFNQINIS
Sequence of UniProt P50991 (P50991 whole entry): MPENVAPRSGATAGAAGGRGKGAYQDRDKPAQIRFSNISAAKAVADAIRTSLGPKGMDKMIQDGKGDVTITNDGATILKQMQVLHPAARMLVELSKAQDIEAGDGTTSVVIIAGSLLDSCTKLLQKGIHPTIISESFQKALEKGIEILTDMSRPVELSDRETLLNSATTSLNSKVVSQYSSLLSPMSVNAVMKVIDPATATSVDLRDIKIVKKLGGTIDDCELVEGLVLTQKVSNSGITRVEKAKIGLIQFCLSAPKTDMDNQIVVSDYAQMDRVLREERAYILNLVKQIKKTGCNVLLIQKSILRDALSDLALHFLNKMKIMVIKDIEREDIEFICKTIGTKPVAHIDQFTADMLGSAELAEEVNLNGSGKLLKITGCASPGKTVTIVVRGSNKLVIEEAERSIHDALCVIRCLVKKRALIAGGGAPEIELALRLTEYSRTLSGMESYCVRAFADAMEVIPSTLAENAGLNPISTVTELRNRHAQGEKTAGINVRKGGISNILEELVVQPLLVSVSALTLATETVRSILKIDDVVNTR
Sequence of UniProt O43826 (O43826 whole entry): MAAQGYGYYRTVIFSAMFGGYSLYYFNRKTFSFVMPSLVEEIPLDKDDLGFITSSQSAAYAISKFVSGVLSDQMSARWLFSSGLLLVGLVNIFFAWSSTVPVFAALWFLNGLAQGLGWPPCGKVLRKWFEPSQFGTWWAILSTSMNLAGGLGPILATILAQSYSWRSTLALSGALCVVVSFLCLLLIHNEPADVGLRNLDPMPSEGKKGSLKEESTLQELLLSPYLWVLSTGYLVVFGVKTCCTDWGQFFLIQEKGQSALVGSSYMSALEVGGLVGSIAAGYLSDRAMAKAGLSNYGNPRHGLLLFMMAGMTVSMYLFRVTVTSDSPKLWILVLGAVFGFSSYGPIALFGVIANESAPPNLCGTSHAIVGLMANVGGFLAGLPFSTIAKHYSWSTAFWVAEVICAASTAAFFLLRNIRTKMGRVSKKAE
Sequence of UniProt Q712K3 (Q712K3 whole entry): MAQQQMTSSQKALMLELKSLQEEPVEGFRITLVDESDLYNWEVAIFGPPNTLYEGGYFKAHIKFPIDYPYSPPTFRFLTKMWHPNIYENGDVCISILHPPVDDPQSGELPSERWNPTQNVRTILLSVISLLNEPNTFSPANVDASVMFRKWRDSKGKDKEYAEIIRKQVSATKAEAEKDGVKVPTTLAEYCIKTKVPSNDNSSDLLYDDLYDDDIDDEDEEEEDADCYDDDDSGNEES
Sequence of UniProt Q13490 (Q13490 whole entry): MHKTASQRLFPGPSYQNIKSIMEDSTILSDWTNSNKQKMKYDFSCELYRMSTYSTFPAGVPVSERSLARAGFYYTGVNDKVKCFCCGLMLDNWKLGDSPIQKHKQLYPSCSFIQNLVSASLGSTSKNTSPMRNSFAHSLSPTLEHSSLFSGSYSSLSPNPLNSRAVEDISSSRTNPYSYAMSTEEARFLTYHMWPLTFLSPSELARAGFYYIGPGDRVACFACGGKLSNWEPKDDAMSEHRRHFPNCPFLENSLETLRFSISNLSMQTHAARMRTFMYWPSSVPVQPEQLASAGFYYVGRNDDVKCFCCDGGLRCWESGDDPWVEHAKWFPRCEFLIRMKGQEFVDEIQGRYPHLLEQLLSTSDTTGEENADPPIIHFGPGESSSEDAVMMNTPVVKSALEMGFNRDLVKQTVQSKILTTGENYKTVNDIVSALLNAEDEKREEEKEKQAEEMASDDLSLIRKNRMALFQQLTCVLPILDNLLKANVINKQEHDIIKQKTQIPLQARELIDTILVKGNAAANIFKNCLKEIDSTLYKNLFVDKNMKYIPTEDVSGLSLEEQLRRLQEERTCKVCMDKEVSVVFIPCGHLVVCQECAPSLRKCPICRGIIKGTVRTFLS
Sequence of UniProt P11142 (P11142 whole entry, looked up): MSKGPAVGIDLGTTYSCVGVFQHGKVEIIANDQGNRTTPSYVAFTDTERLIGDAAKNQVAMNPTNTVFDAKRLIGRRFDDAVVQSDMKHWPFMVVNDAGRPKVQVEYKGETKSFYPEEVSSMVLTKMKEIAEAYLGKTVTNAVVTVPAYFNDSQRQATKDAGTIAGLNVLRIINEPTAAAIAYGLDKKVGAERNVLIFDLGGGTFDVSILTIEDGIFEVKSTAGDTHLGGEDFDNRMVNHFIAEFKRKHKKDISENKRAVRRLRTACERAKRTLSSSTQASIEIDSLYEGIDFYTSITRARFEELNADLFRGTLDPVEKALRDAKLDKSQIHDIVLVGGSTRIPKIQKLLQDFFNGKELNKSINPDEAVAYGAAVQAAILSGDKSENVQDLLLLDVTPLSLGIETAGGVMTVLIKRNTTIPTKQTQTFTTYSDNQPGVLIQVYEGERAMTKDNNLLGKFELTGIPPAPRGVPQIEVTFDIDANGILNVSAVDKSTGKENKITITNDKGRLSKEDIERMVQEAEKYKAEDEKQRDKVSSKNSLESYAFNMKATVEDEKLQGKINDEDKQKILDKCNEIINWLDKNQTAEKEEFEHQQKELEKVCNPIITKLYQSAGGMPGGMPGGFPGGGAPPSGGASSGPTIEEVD
Sequence of UniProt P20851 (P20851 whole entry): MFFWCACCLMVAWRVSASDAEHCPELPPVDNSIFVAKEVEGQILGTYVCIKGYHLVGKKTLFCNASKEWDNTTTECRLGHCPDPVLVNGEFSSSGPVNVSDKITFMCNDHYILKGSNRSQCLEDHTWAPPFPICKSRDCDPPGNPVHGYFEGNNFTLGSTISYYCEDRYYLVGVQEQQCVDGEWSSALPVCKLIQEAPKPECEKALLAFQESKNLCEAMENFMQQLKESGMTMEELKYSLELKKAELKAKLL
Sequence of UniProt Q10471 (Q10471 whole entry): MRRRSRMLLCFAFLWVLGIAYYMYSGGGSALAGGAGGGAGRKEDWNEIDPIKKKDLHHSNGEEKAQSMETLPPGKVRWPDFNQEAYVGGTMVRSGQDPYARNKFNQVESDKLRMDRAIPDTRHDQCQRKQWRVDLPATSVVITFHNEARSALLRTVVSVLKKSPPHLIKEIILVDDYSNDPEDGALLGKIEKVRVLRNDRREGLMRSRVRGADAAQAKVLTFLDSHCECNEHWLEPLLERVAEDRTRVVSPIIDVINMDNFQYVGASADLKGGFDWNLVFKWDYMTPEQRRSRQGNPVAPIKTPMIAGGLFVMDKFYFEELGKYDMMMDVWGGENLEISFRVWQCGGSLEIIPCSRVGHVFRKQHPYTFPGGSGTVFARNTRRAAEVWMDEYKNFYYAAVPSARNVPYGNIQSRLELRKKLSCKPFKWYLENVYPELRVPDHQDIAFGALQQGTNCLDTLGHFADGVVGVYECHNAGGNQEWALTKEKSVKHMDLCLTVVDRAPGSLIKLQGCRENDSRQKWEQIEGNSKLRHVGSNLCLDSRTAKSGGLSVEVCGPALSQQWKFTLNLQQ
Sequence of UniProt P51965 (P51965 whole entry): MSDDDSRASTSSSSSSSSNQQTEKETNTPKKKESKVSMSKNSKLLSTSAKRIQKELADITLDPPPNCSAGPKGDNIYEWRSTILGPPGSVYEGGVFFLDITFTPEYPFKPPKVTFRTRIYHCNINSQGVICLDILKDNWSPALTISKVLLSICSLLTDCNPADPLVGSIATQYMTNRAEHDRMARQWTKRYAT

| Target | thermal stability z-score |
| --- | --- |
| CALR (UniProt P27797) | 0.147 |
| MCM3 (UniProt P25205) | 2.44 |
| RPL22 (UniProt P35268) | -0.98 |
| SLC37A4 (UniProt O43826) | -0.212 |
| NCOR2 (UniProt Q9Y618) | 0.138 |
| TCF12 (UniProt Q99081) | -0.203 |
| BIRC2 (UniProt Q13490) | -0.483 |
| RNF187 (UniProt Q5TA31) | -0.503 |
| C4BPB (UniProt P20851) | 0.18 |
| HSPA8 (UniProt P11142) | -0.107 |
| YWHAE (UniProt P62258) | -0.368 |
| RAB24 (UniProt Q969Q5) | -0.143 |
| IRS2 (UniProt Q9Y4H2) | -1.42 |
| FHOD1 (UniProt Q9Y613) | 0.2 |
| IVNS1ABP (UniProt Q9Y6Y0) | -0.145 |
| NME3 (UniProt Q13232) | 0.673 |
| ITM2B (UniProt Q9Y287) | -0.251 |
| AZIN1 (UniProt O14977) | 0.62 |
| GAA (UniProt P10253) | -0.00416 |
| UBE2R2 (UniProt Q712K3) | -0.279 |
| FCHSD2 (UniProt O94868) | -0.184 |
| GALNT2 (UniProt Q10471) | 0.25 |
| MTMR10 (UniProt Q9NXD2) | -0.188 |
| HADH (UniProt Q16836) | -0.432 |

| Target | thermal stability z-score |
| --- | --- |
| COPS5 (UniProt Q92905) | 0.276 |
| XRCC4 (UniProt Q13426) | 1.24 |
| CCT4 (UniProt P50991) | -0.223 |
| GDPD3 (UniProt Q7L5L3) | 0.114 |
| KIAA1033 (UniProt Q2M389) | -0.0284 |
| KEAP1 (UniProt Q14145) | 4.65 |
| UBE2E1 (UniProt P51965) | 11.8 |
| SMARCA4 (UniProt P51532) | -0.673 |
| ITGA1 (UniProt P56199) | -0.126 |
| TRIM3 (UniProt O75382) | -0.044 |
| PSMD8 (UniProt P48556) | -0.197 |
| TRIM16 (UniProt O95361) | -0.0294 |
| WWC1 (UniProt Q8IX03) | -0.0726 |
| MVD (UniProt P53602) | -0.0067 |
| FLOT1 (UniProt O75955) | -0.283 |
| INTS4 (UniProt Q96HW7) | -0.0059 |
| SERF2 (UniProt P84101) | -0.113 |
| ANKRD17 (UniProt O75179) | -0.27 |
| C11ORF54 (UniProt Q9H0W9) | 0.829 |
| CSTF2T (UniProt Q9H0L4) | 0.141 |
| PSMD2 (UniProt Q13200) | -0.333 |
| MMTAG2 (UniProt Q9BU76) | 0.188 |
| TPP1 (UniProt O14773) | -0.0975 |
| DMXL1 (UniProt Q9Y485) | -0.0177 |

| Target | thermal stability z-score |
| --- | --- |
| ELP5 (UniProt Q8TE02) | 0.489 |
| IARS2 (UniProt Q9NSE4) | -0.455 |
| STK38 (UniProt Q15208) | -0.182 |
| ACIN1 (UniProt Q9UKV3) | 0.115 |
| SSSCA1 (UniProt O60232) | 0.0653 |
| POU2F1 (UniProt P14859) | 0.0127 |
| TFRC (UniProt P02786) | 0.144 |
| PUDP (UniProt Q08623) | -1.3 |
| TRIM25 (UniProt Q14258) | -0.882 |
| PARP9 (UniProt Q8IXQ6) | -0.0858 |
| KCTD9 (UniProt Q7L273) | -0.315 |
| HARS2 (UniProt P49590) | -0.0959 |
| SNAPC1 (UniProt Q16533) | 0.0437 |
| ESF1 (UniProt Q9H501) | 0.24 |
| SURF4 (UniProt O15260) | -0.243 |
| CHMP3 (UniProt Q9Y3E7) | 0.291 |
| STXBP3 (UniProt O00186) | 0.223 |
| TTPAL (UniProt Q9BTX7) | 0.594 |
| GAB1 (UniProt Q13480) | -0.0474 |
| SYNJ2BP (UniProt P57105) | 0.518 |
| RPS6KA1 (UniProt Q15418) | 0.0783 |
| TNFAIP8 (UniProt O95379) | 0.147 |
| LPIN2 (UniProt Q92539) | 0.00612 |

Compound: NC(=O)CCCCC1CCSS1 [lipoamide]
Test: as above
Conditions: HeLa; lipoamide concentration 100 µM; arsenate co-treatment: 1 mM arsenate 1 h
Method: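 Cellular thermal proteome profiling in HeLa cells. Cells were treated with 100 µM lipoamide for 1 h, with or without 1 mM arsenate for a further 1 h, then heated to ten temperatures (37-66.3 °C), and soluble protein was quantified by TMT mass spectrometry relative to 0.1% DMSO controls. The thermal stability score (sum of log2 fold changes minus the abundance score) was transformed to a z-score; mean of n = 3 experiments.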

| Target | thermal stability z-score |
| --- | --- |
| CALR (UniProt P27797) | -4.25 |
| MCM3 (UniProt P25205) | -0.878 |
| RPL22 (UniProt P35268) | -0.122 |
| SLC37A4 (UniProt O43826) | 1.26 |
| NCOR2 (UniProt Q9Y618) | 0.182 |
| TCF12 (UniProt Q99081) | -0.124 |
| BIRC2 (UniProt Q13490) | -0.731 |
| RNF187 (UniProt Q5TA31) | -0.474 |
| C4BPB (UniProt P20851) | -5.06 |
| HSPA8 (UniProt P11142) | -0.0626 |
| YWHAE (UniProt P62258) | 0.149 |
| RAB24 (UniProt Q969Q5) | 0.205 |
| IRS2 (UniProt Q9Y4H2) | -0.525 |
| FHOD1 (UniProt Q9Y613) | -0.261 |
| IVNS1ABP (UniProt Q9Y6Y0) | 0.601 |
| NME3 (UniProt Q13232) | 0.0656 |
| ITM2B (UniProt Q9Y287) | 0.215 |
| AZIN1 (UniProt O14977) | 0.745 |

| Target | thermal stability z-score |
| --- | --- |
| GAA (UniProt P10253) | -0.154 |
| UBE2R2 (UniProt Q712K3) | 0.8 |
| FCHSD2 (UniProt O94868) | -0.0527 |
| GALNT2 (UniProt Q10471) | -1.83 |
| MTMR10 (UniProt Q9NXD2) | -0.108 |
| HADH (UniProt Q16836) | 0.136 |
| COPS5 (UniProt Q92905) | 0.384 |
| XRCC4 (UniProt Q13426) | 2.01 |
| CCT4 (UniProt P50991) | -0.0959 |
| GDPD3 (UniProt Q7L5L3) | 0.187 |
| KIAA1033 (UniProt Q2M389) | -0.344 |
| KEAP1 (UniProt Q14145) | 2.32 |
| UBE2E1 (UniProt P51965) | 0.456 |
| SMARCA4 (UniProt P51532) | 0.212 |
| ITGA1 (UniProt P56199) | 0.216 |
| TRIM3 (UniProt O75382) | 0.012 |
| PSMD8 (UniProt P48556) | 0.814 |
